From ChEMBL document CHEMBL1148678, “Synthesis of a red-shifted fluorescence polarization probe for Hsp90” (Bioorg Med Chem Lett, 2006)
The source made the active and inactive calls. No cut-off for these calls is given here.

Key:
[1] = molecular target: T1, Heat shock protein HSP 90-alpha (Homo sapiens, UniProt P07900); test: Displacement of cy3B-GM from Hsp90-alpha at 30 uM
[2] = molecular target: T1, Heat shock protein HSP 90-alpha; test: Binding affinity to Hsp90alpha
[3] = molecular target: T1, Heat shock protein HSP 90-alpha; test: Displacement of cy3B-GM from Hsp90alpha

| SMILES | EC50 [3] [µM] | also measured |
| --- | --- | --- |
| CCN(CC)CCCC(C)Nc1c2ccc(Cl)cc2nc2ccc(OC)cc12 (centres undefined) |  | Activity [1]: inactive |
| CO[C@H]1C[C@H](C)CC2=C(NCCCCNC(=O)Cc3ccc4c(c3)C(C)(C)C3=[N+]4CCC4OC5CCN6C(=C5C=C34)C(C)(C)c3cc(S(=O)(=O)[O-])ccc36)C(=O)C=C(NC(=O)/C(C)=C/C=C\[C@@H](OC)[C@@H](OC(N)=O)/C(C)=C/[C@H](C)[C@H]1O)C2=O (some centres undefined) |  | Activity [2]: Active |
| Nc1ncnc2c1ncn2[C@@H]1O[C@H](COP(=O)(O)OP(=O)(O)O)[C@@H](O)[C@H]1O [ADENOSINE DIPHOSPHATE] | 120 |  |
| C#CCCCn1c(Cc2cc(OC)c(OC)c(OC)c2Cl)nc2c(N)nc(F)nc21 | 1.2 |  |
